In patent US10125138B2, “Triazolotriazinone derivatives having activity a s herbicides” (Syngenta Participations AG, priority 2015, dated 2018):

What was measured:
Format in all cases: in vivo
Details in all cases: 1000 g/h, evaluated after 13 days, five point scale
[1] = tested on: Solanum nigrum (SOLNI); assay: Pre-emergence glasshouse herbicide test, Solanum nigrum
Procedure: (§1) Seeds of a variety of test species are sown in standard soil in pots (Lolium perenne (LOLPE), Solanum nigrum (SOLNI), Amaranthus retoflexus (AMARE), Setaria faberi (SETFA), Echinochloa crus-galli (ECHCG), Ipomoea hederacea (IPOHE)). After cultivation for one day (pre-emergence) or after 8 days cultivation (post-emergence) under controlled conditions in a glasshouse (at 24/16° C., day/night; 14 hours light; 65% humidity), the plants are sprayed with an aqueous spray solution derived from the formulation of the technical active ingredient in acetone/water (50:50) solution containing 0.5% Tween 20 (polyoxyethelyene sorbitan monolaurate, CAS RN 9005-64-5). Compounds are applied at 1000 g/h. The test plants are then grown in a glasshouse under controlled conditions in a glasshouse (at 24/16° C., day/night; 14 hours light; 65% humidity) and watered twice daily. After 13 days for pre and post-emergence, the test is evaluated for the percentage damage caused to the plant. The biological activities are shown in the following table on a five point scale (5=80-100%; 4=60-79%; 3=40-59%; 2=20-39%; 1=0-19%).

[2] = tested on: Echinochloa crus-galli (ECHCG); assay: Post-emergence glasshouse herbicide test, Echinochloa crus-galli
[3] = tested on: Setaria faberi (SETFA); assay: Pre-emergence glasshouse herbicide test, Setaria faberi
[4] = tested on: Ipomoea hederacea (IPOHE); assay: Post-emergence glasshouse herbicide test, Ipomoea hederacea
[5] = tested on: Ipomoea hederacea (IPOHE); assay: Pre-emergence glasshouse herbicide test, Ipomoea hederacea
[6] = tested on: Setaria faberi (SETFA); assay: Post-emergence glasshouse herbicide test, Setaria faberi
[7] = tested on: Echinochloa crus-galli (ECHCG); assay: Pre-emergence glasshouse herbicide test, Echinochloa crus-galli
[8] = tested on: Lolium perenne (LOLPE); assay: Pre-emergence glasshouse herbicide test, Lolium perenne
[9] = tested on: Amaranthus retoflexus (AMARE); assay: Post-emergence glasshouse herbicide test, Amaranthus retoflexus
[10] = tested on: Solanum nigrum (SOLNI); assay: Post-emergence glasshouse herbicide test, Solanum nigrum
Procedure: as §1

[11] = tested on: Amaranthus retoflexus (AMARE); assay: Pre-emergence glasshouse herbicide test, Amaranthus retoflexus
[12] = tested on: Lolium perenne (LOLPE); assay: Post-emergence glasshouse herbicide test, Lolium perenne

| Compound | percentage damage caused to the plant, PRE Application SOLNI [1] | percentage damage caused to the plant, POST Application ECHCG [2] | percentage damage caused to the plant, PRE Application SETFA [3] | percentage damage caused to the plant, POST Application IPOHE [4] | percentage damage caused to the plant, PRE Application IPOHE [5] | percentage damage caused to the plant, POST Application SETFA [6] | percentage damage caused to the plant, PRE Application ECHCG [7] | percentage damage caused to the plant, PRE Application LOLPE [8] | percentage damage caused to the plant, POST Application AMARE [9] | percentage damage caused to the plant, POST Application SOLNI [10] | percentage damage caused to the plant, PRE Application AMARE [11] | percentage damage caused to the plant, POST Application LOLPE [12] |
| --- | --- | --- | --- | --- | --- | --- | --- | --- | --- | --- | --- | --- |
| CCn1nnnc1NC(=O)c1nn2cnn(-c3ccc(C)cc3C)c2nc1=O [Compound 1.045] | 5 (5=80-100%) | 5 (5=80-100%) | 4 (4=60-79%) | 5 (5=80-100%) | 5 (5=80-100%) | 5 (5=80-100%) | 5 (5=80-100%) | 5 (5=80-100%) | 5 (5=80-100%) | 5 (5=80-100%) | 5 (5=80-100%) | 5 (5=80-100%) |
| Cn1ncnc1NC(=O)c1nn2cnn(-c3ccc(F)cc3)c2nc1=O [Compound 2.001] | 5 (5=80-100%) | 4 (4=60-79%) | 5 (5=80-100%) | 5 (5=80-100%) | 4 (4=60-79%) | 5 (5=80-100%) | 5 (5=80-100%) | 3 (3=40-59%) | 5 (5=80-100%) | 5 (5=80-100%) | 5 (5=80-100%) | 4 (4=60-79%) |
| Cn1cnnc1NC(=O)c1nn2cnn(-c3ccc(F)cc3)c2nc1=O [Compound 3.001] | 1 (1=0-19%) | 1 (1=0-19%) | 1 (1=0-19%) | 1 (1=0-19%) | 1 (1=0-19%) | 1 (1=0-19%) | 1 (1=0-19%) | 1 (1=0-19%) | 3 (3=40-59%) | 5 (5=80-100%) | 3 (3=40-59%) | 1 (1=0-19%) |
| O=C1CCCC(=O)C1C(=O)c1nn2cnn(-c3ccc(F)cc3)c2nc1=O [Compound 4.002] | 5 (5=80-100%) | 5 (5=80-100%) | 5 (5=80-100%) | 5 (5=80-100%) | 5 (5=80-100%) | 5 (5=80-100%) | 5 (5=80-100%) | 4 (4=60-79%) | 5 (5=80-100%) | 5 (5=80-100%) | 5 (5=80-100%) | 5 (5=80-100%) |
| COc1cccc(-n2ncn3nc(C(=O)C4C(=O)CCCC4=O)c(=O)nc23)c1 [Compound 4.010] | 5 (5=80-100%) | 5 (5=80-100%) | 5 (5=80-100%) | 5 (5=80-100%) | 5 (5=80-100%) | 5 (5=80-100%) | 5 (5=80-100%) | 5 (5=80-100%) | 5 (5=80-100%) | 5 (5=80-100%) | 5 (5=80-100%) | 4 (4=60-79%) |
